Test results taken from PubChem BioAssay AID330 (DTP/NCI, 2004).
“And” between values parts separate entries of the source, which are not always exact repeats. Identical values can stand only once. Inconclusive results and toxic doses are left out. Peptide text beside a SMILES is read from it.

Tested on: P388 leukemia ip, CD2F1 mice, survival T/C
Test: NCI In Vivo Anticancer Drug Screen. Data for tumor model P388 Leukemia (intraperitoneal) in CD2F1 (CDF1) mice
Conditions: endpoint: median survival time, higher = longer survival
How it was run: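 Mice carrying the transplanted tumor received test compound or vehicle. Survival was recorded in each group, and the value is the treated-group measurement divided by that of the vehicle-treated control group.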

CCOP(=O)(OCC)C(C)NC(=O)C(C)NC(=O)c1cn(CC)c2nc(C)ccc2c1=O (centres undefined)
T/C (dose: 100.0 mg/kg/injection, schedule: Q04DX002 (ip), vehicle: saline): 97 % of control
T/C (dose: 200.0 mg/kg/injection, schedule: Q04DX002 (ip), vehicle: saline): 97 % of control
T/C (dose: 400.0 mg/kg/injection, schedule: Q04DX002 (ip), vehicle: saline): 95 % of control

CCOC(=O)C(NC(=O)OCc1ccccc1)C(O)C#C[Si](C)(C)C (centres undefined)
T/C (dose: 100.0 mg/kg/injection, schedule: Q04DX002 (ip), vehicle: saline with Tween-80): 95 % of control
T/C (dose: 200.0 mg/kg/injection, schedule: Q04DX002 (ip), vehicle: saline with Tween-80): 95 % of control
T/C (dose: 400.0 mg/kg/injection, schedule: Q04DX002 (ip), vehicle: saline with Tween-80): 90 % of control

COC(=O)c1ccccc1NC1OC(CO)C(O)C1O (centres undefined)
T/C (dose: 60.0 mg/kg/injection, schedule: Q01DX005 (ip), vehicle: saline with Tween-80): 104 % of control
T/C (dose: 120.0 mg/kg/injection, schedule: Q01DX005 (ip), vehicle: saline with Tween-80): 98 % of control
T/C (dose: 240.0 mg/kg/injection, schedule: Q01DX005 (ip), vehicle: saline with Tween-80): 93 % of control

N[C@H](C(=O)O)[C@@H]1CC(Cl)=NO1
T/C (dose: 0.03 mg/kg/injection, schedule: Q01DX009 (ip), vehicle: saline): 105 % of control and 108 % of control
T/C (dose: 0.06 mg/kg/injection, schedule: Q01DX009 (ip), vehicle: saline): 113 % of control
T/C (dose: 0.13 mg/kg/injection, schedule: Q01DX009 (ip), vehicle: saline): 120 % of control
T/C (dose: 0.25 mg/kg/injection, schedule: Q01DX009 (ip), vehicle: saline): 150 % of control
T/C (dose: 0.5 mg/kg/injection, schedule: Q01DX009 (ip), vehicle: saline): 155 % of control
T/C (dose: 0.63 mg/kg/injection, schedule: Q01DX009 (ip), vehicle: saline): 174 % of control
T/C (dose: 0.75 mg/kg/injection, schedule: Q01DX009 (ip), vehicle: saline): 155 % of control
T/C (dose: 1.0 mg/kg/injection, schedule: Q01DX009 (ip), vehicle: saline): 150 % of control and 171 % of control
T/C (dose: 1.0 mg/kg/injection, schedule: Q01DX009 (ip), vehicle: water): 121 % of control
T/C (dose: 1.25 mg/kg/injection, schedule: Q01DX009 (ip), vehicle: saline): 213 % of control
T/C (dose: 1.94 mg/kg/injection, schedule: Q01DX009 (ip), vehicle: saline): 165 % of control and 179 % of control and 192 % of control
T/C (dose: 2.0 mg/kg/injection, schedule: Q01DX005 (ip), vehicle: saline): 119 % of control
T/C (dose: 2.0 mg/kg/injection, schedule: Q01DX005 (ip), vehicle: water): 111 % of control
T/C (dose: 2.0 mg/kg/injection, schedule: Q01DX005 (iv), vehicle: saline): 119 % of control
T/C (dose: 2.0 mg/kg/injection, schedule: Q01DX009 (ip), vehicle: saline): 152 % of control and 164 % of control and 198 % of control
T/C (dose: 2.0 mg/kg/injection, schedule: Q01DX009 (ip), vehicle: water): 153 % of control
T/C (dose: 2.3 mg/kg/injection, schedule: Q01DX009 (ip), vehicle: saline): 190 % of control
T/C (dose: 2.5 mg/kg/injection, schedule: Q01DX009 (ip), vehicle: saline): 235 % of control
T/C (dose: 3.0 mg/kg/injection, schedule: Q01DX005 (iv), vehicle: saline): 119 % of control
T/C (dose: 3.0 mg/kg/injection, schedule: Q01DX009 (ip), vehicle: saline): 175 % of control and 180 % of control and 238 % of control
T/C (dose: 3.12 mg/kg/injection, schedule: Q01DX005 (ip), vehicle: water): 155 % of control
T/C (dose: 3.24 mg/kg/injection, schedule: Q01DX009 (ip), vehicle: saline): 177 % of control and 189 % of control and 203 % of control
T/C (dose: 3.5 mg/kg/injection, schedule: Q01DX009 (ip), vehicle: saline): 194 % of control
T/C (dose: 4.0 mg/kg/injection, schedule: Q01DX005 (ip), vehicle: saline): 161 % of control
T/C (dose: 4.0 mg/kg/injection, schedule: Q01DX005 (iv), vehicle: saline): 119 % of control
T/C (dose: 4.0 mg/kg/injection, schedule: Q01DX009 (ip), vehicle: saline): 161 % of control and 190 % of control
T/C (dose: 4.0 mg/kg/injection, schedule: Q01DX009 (ip), vehicle: water): 112 % of control
T/C (dose: 4.32 mg/kg/injection, schedule: Q01DX005 (ip), vehicle: saline): 154 % of control
T/C (dose: 5.0 mg/kg/injection, schedule: Q01DX005 (ip), vehicle: saline): 158 % of control
T/C (dose: 5.0 mg/kg/injection, schedule: Q01DX009 (ip), vehicle: saline): 235 % of control
T/C (dose: 5.3 mg/kg/injection, schedule: Q01DX009 (ip), vehicle: saline): 203 % of control
T/C (dose: 5.4 mg/kg/injection, schedule: Q01DX009 (ip), vehicle: saline): 163 % of control and 188 % of control and 204 % of control
T/C (dose: 6.0 mg/kg/injection, schedule: Q01DX009 (ip), vehicle: saline): 173 % of control and 186 % of control and 319 % of control
T/C (dose: 6.25 mg/kg/injection, schedule: Q01DX005 (ip), vehicle: water): 150 % of control and 168 % of control
T/C (dose: 7.2 mg/kg/injection, schedule: Q01DX005 (ip), vehicle: saline): 156 % of control
T/C (dose: 8.0 mg/kg/injection, schedule: Q01DX005 (ip), vehicle: saline): 171 % of control and 182 % of control
T/C (dose: 8.0 mg/kg/injection, schedule: Q01DX005 (iv), vehicle: saline): 119 % of control
T/C (dose: 8.0 mg/kg/injection, schedule: Q01DX009 (ip), vehicle: saline): 186 % of control and 210 % of control
T/C (dose: 8.0 mg/kg/injection, schedule: Q01DX009 (ip), vehicle: water): 184 % of control
T/C (dose: 9.0 mg/kg/injection, schedule: Q01DX009 (ip), vehicle: saline): 99 % of control
T/C (dose: 10.0 mg/kg/injection, schedule: Q01DX005 (ip), vehicle: saline): 164 % of control
T/C (dose: 12.0 mg/kg/injection, schedule: Q01DX005 (ip), vehicle: saline): 220 % of control
T/C (dose: 12.0 mg/kg/injection, schedule: Q01DX005 (iv), vehicle: saline): 171 % of control
T/C (dose: 12.5 mg/kg/injection, schedule: Q01DX005 (ip), vehicle: water): 155 % of control and 182 % of control
T/C (dose: 15.0 mg/kg/injection, schedule: Q01DX009 (ip), vehicle: saline): 98 % of control and 100 % of control
T/C (dose: 16.0 mg/kg/injection, schedule: Q01DX005 (ip), vehicle: saline): 164 % of control and 181 % of control
T/C (dose: 16.0 mg/kg/injection, schedule: Q01DX005 (ip), vehicle: water): 152 % of control and 163 % of control
T/C (dose: 16.0 mg/kg/injection, schedule: Q01DX009 (ip), vehicle: saline): 102 % of control and 218 % of control
T/C (dose: 16.0 mg/kg/injection, schedule: Q01DX009 (ip), vehicle: water): 198 % of control
T/C (dose: 20.0 mg/kg/injection, schedule: Q01DX005 (ip), vehicle: saline): 169 % of control and 176 % of control
T/C (dose: 20.0 mg/kg/injection, schedule: Q04DX003 (ip), vehicle: saline): 158 % of control
T/C (dose: 24.0 mg/kg/injection, schedule: Q01DX005 (ip), vehicle: saline): 222 % of control
T/C (dose: 24.0 mg/kg/injection, schedule: Q01DX005 (iv), vehicle: saline): 108 % of control
T/C (dose: 25.0 mg/kg/injection, schedule: Q01DX005 (ip), vehicle: water): 155 % of control and 187 % of control
T/C (dose: 32.0 mg/kg/injection, schedule: Q01DX005 (ip), vehicle: saline): 225 % of control
T/C (dose: 32.0 mg/kg/injection, schedule: Q01DX005 (ip), vehicle: water): 170 % of control
T/C (dose: 40.0 mg/kg/injection, schedule: Q04DX003 (ip), vehicle: saline): 180 % of control and 196 % of control
T/C (dose: 50.0 mg/kg/injection, schedule: Q04DX003 (ip), vehicle: other): 163 % of control
T/C (dose: 80.0 mg/kg/injection, schedule: Q04DX003 (ip), vehicle: saline): 150 % of control and 190 % of control and 297 % of control
T/C (dose: 100.0 mg/kg/injection, schedule: Q04DX003 (ip), vehicle: other): 161 % of control
T/C (dose: 160.0 mg/kg/injection, schedule: Q04DX003 (ip), vehicle: saline): 118 % of control and 164 % of control and 250 % of control

c1ccc(SCCOCCOCCSc2ccccn2)nc1
T/C (dose: 25.0 mg/kg/injection, schedule: Q01DX005 (ip), vehicle: Klucel (hydroxypropylcellulose) (HPC)): 103 % of control
T/C (dose: 50.0 mg/kg/injection, schedule: Q01DX005 (ip), vehicle: Klucel (hydroxypropylcellulose) (HPC)): 108 % of control
T/C (dose: 100.0 mg/kg/injection, schedule: Q01DX005 (ip), vehicle: Klucel (hydroxypropylcellulose) (HPC)): 111 % of control

N#CCCCCC/C=C/CCCCCCC1C=CCC1 (centres undefined)
T/C (dose: 100.0 mg/kg/injection, schedule: Q01DX001 (ip), vehicle: saline): 100 % of control
T/C (dose: 200.0 mg/kg/injection, schedule: Q01DX001 (ip), vehicle: saline): 100 % of control
T/C (dose: 400.0 mg/kg/injection, schedule: Q01DX001 (ip), vehicle: saline): 96 % of control

NCCCCC(NC(=O)C(N)Cc1cnc[nH]1)C(=O)O (stereo not drawn) (H-His-Lys-OH; configuration not given here)
T/C (dose: 50.0 mg/kg/injection, schedule: Q01DX005 (ip), vehicle: saline): 99 % of control
T/C (dose: 100.0 mg/kg/injection, schedule: Q01DX005 (ip), vehicle: saline): 108 % of control
T/C (dose: 200.0 mg/kg/injection, schedule: Q01DX005 (ip), vehicle: saline): 100 % of control
